These results are taken from publication PMC9969401, “Discovery of 2-(3-Benzamidopropanamido)thiazole-5-carboxylate Inhibitors of the Kinesin HSET (KIFC1) and the Development of Cellular Target Engagement Probes” (Journal of Medicinal Chemistry, 2023).

The nature of data set [1]: Kinetic aqueous solubility (KSol), HPLC-UV. Conditions: PBS buffer pH 7.4, 100 μM solution with 1% DMSO, HPLC with UV detection. It counts as physicochemical.
Data set [2] concerns centrosome-amplified (4NCA) DLD1 cells. The data set is described as follows: Multipolar spindle assay (4NCA cell line). The class given is cell-based, human. The source says: The cellular models consisted of chromosomally stable human colon cancer DLD1 diploid (2N) and tetraploid (4N) cells, along with tetraploid centrosome -amplified (4NCA) DLD1 cells and DLD1 HSET knockout (KO) cells. DLD1 2N and 4N cells were generated and characterized as previously described.[27],[41],[42] In order to generate 4NCA cells, we used dihydro-cytochalasin B (DCB) to transiently block cytokinesis and induce tetraploidisation and centrosome amplification in DLD1 cells. Centrosome amplification in 4NCA cells is transient and therefore they were generated from 2N cells for each run of the assay.[27] The DLD1 HSET KO cells were knockout clones generated by CRISPR and validated by sequencing to have a homozygous deletion in the KIFC1 gene.
Inhibition of HSET-mediated clustering was measured using a phenotypic assay measuring the formation of multipolar metaphase spindles in DLD1 cells with (4NCA) or without (4N) centrosome amplification. 4NCA cells were generated by treating 2N DLD1 cells with 2 μΜ DCB for 24 h, washed, and released in growth media for 24 h. 4N and 4NCA DLD1 cells were plated in 96-well ibidi μ-Clear plates (IB-89626, ibidi) with a no. 1.5 polymer coverslip bottom with optimal imaging properties. To enrich the mitotic population, cells were first treated for 3.5 h with 8 μM pro-TAME (I-440-01M, R&D system), an inhibitor of APC/C that transiently arrests cells in metaphase without affecting the structure of the spindle. Following the initial arrest, cells were treated with HSET compounds in the presence of 8 μM MG-132 (S2619, SelleckChem), a proteasome inhibitor that helps to maintain the metaphase arrest, where the number of spindle poles/cell can be optimally quantified by an automated segmentation analysis.
Cells were then fixed in methanol and stained for 3 h for mitotic pole marker aurora A (1:1000 610939 mouse anti-IAK1, BD Biosciences) and phosphorylated histone H3 (1:1500 ab47297 anti-histone H3 pS10, Abcam) as a marker of mitotic cells in 1.5% FBS in PBS. Following primary antibody treatment, cells were incubated with secondary antibodies Alexa Fluor 488 goat antimouse and Alexa Fluor 555 goat antirabbit (1:1500, A11029 and A21429, respectively, Life Technologies) together with 1 μg/mL DAPI (D9542, Sigma) in 1.5% FBS in PBS. Image acquisition was performed at 10× using the GE INCELL 2200 High Content Imaging System (Cytiva) and analyzed using the InCell Investigator software. Mitotic cells were identified by high pHH3 staining and were scored as multipolar if they had more than two mitotic spindle poles. The percentage of multipolar mitoses was calculated by dividing the number of multipolar mitoses by the total of all visible mitoses in one well of a 96-well plate (n > 100 for each replicate, two replicates per concentration point).

The target of data set [3] is T1, recombinant full-length HSET (Homo sapiens, UniProt Q9BW19).
T1 construct: 5 nM full-length human N-terminal His-tag HSET; His-tag (N)
T1 sequence (Q9BW19 1-673): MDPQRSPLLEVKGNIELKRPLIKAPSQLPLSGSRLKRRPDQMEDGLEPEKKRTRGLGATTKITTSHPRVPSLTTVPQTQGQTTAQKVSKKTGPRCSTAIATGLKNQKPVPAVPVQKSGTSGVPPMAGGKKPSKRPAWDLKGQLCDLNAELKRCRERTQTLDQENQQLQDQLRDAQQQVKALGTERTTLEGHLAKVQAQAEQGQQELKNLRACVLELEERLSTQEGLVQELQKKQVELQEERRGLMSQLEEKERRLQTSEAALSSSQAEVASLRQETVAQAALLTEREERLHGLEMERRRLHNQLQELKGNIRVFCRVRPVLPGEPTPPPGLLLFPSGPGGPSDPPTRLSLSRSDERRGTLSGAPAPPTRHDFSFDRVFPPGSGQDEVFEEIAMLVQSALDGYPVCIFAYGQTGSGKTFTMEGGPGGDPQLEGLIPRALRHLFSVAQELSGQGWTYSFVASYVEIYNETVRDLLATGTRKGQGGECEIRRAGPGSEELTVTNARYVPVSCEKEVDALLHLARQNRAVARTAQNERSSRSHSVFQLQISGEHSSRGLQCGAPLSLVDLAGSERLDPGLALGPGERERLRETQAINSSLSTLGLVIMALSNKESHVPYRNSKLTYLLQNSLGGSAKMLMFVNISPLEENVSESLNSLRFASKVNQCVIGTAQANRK
Put plainly: ADP-Glo HSET assay (500 μM ATP). It counts as biochemical. Conditions: high ATP concentration of 500 μM; single determination or mean of two. The method, then:
The HSET or Eg5 ATPase activity was measured using the ADP-Glo Kinase Assay kit (Promega, V9102). The assays were run using final concentrations of 5 nM full-length human N-terminal His-tag HSET or 4 nM GST-tagged Eg5 motor domain protein (Cytoskeleton, EG01) and an assay buffer containing 20 mM HEPES pH 6.8, 10 mM MgCl2, 0.25 mM EGTA, 0.4 mM Triton X-100, and 1 mM DTT. Preformed microtubules (Universal Biologicals Cambridge, bovine MT001-XL, or porcine MT002-XL), which were reconstituted in 15 mM PIPES pH 7, 1 mM MgCl2, and 20 μM paclitaxel, were present at a final assay concentration of 70 μg/mL. A reaction volume of 5 μL was used in Proxiplate 384 plus white assay plates (PerkinElmer, 6008280). To measure compound inhibition, 100 nL of compound dissolved in DMSO or DMSO alone was preincubated with the HSET and microtubules for 10 min before 3 μM Ultra-Pure ATP was added to start the ATPase reaction for the 3 μM ATP HSET assay. For the 500 μM ATP HSET assay, the addition of 500 μM Ultra-Pure ATP was used. For the Eg5 ATPase assay, 4.8 μM Ultra-Pure ATP was used. All reactions were incubated at 25 °C for 80 min and then stopped by the addition of 5 μL of the ADP-Glo reagent. 10 μL of Kinase Detection Reagent was then added after a further 45 min of incubation. The luminescence was read after 45 min on a PheraStar FSX plate reader (BMG Labtech). The data processing was performed using Dotmatics Studies software package. Percentage inhibition was determined based on normalization to high controls (0% inhibition, all reagents with 100 nL of DMSO alone) and low controls (100% inhibition […], without HSET). The IC50 values for each compound were determined using a four-parameter logistic curve fit of % inhibition versus concentration.
For orientation: ADP-Glo first removes unused ATP, then detects ADP through luciferase.

Data set [4] has as its target T1, recombinant full-length HSET. The data set is described as follows: ADP-Glo HSET assay (3 μM ATP), microtubule-stimulated ATPase. The class given is biochemical. Particulars: for IC50: preformed microtubules, 3 μM ATP, read-out: HSET ADP-Glo IC50. The method, boiled down: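 His-tagged full-length HSET (5 nM) or GST-Eg5 motor domain (4 nM), with 70 μg/mL paclitaxel-stabilised microtubules in HEPES pH 6.8 buffer, was preincubated with compound for 10 min. ATP was then added (3 or 500 μM for HSET, 4.8 μM for Eg5), followed by 80 min at 25 °C and ADP-Glo luminescence. IC50 was fitted with a four-parameter logistic.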

Where [5] appears, read: 15 μM, 4NCA DLD1 cells (Table 4).
The mark [6] stands for this setting: 15 µM, 4NCA cells, supplementary CSV.
The mark [7] stands for this setting: mean (±SD) n ≥ 3 (37 n = 2, 38 single determination) (Table 3).

For orientation: IC50 means the midpoint of a concentration-inhibition curve.

`CCCOC(=O)c1sc(NC(=O)C[C@H](CCCNC)NC(=O)c2cccc(-c3noc(C)n3)c2)nc1C` [Compound 35, Propyl (S)-4-Methyl-2-(3-(3-(5-methyl-1,2,4-oxadiazol-3-yl)benzamido)-6-(methylamino)hexanamido)thiazole-5-carboxylate] showed a KSol data in data set [1] of more than 90 µM. In addition, the “% multipolarity above baseline @ 15 μM (4NCA cells)” value in data set [2] (setting [5]) and in data set [2] (setting [6]) was 11% each time. The 50% inhibitory concentration (IC50) was found to be 0.066 µM in data set [3], 0.019 µM in data set [4] (setting [7]) and 0.019 µM in data set [4] (mean (±SD) n ≥ 3 (Table 4)).
As to `CCCOC(=O)c1sc(NC(=O)CCNC(=O)c2cccc(-c3noc(C)n3)c2)nc1C` [Compound 32, Propyl 4-Methyl-2-(3-(3-(5-methyl-1,2,4-oxadiazol-3-yl)benzamido)propanamido)thiazole-5-carboxylate], the “% multipolarity above baseline @ 15 μM (4NCA cells)” value in data set [2] (setting [5]) and in data set [2] (setting [6]) was 21% each time. Further, in data set [2] (15 μM, centrosome-amplified (4NCA) DLD1 cell line), the “increase in mitotic spindle multipolarity (4NCA)” value was found to be 21%. In addition, the IC50 was 0.051 µM in data set [3]; 0.012 µM in data set [4] (mean (±SD) n ≥ 3 (Table 4)); 0.012 µM in data set [4] (mean (±SD) n ≥ 3, >200 from a single determination (Table 2)). Besides, in data set [4] (LE = −1.4Log(IC50 [M])/number of non-hydrogen atoms (Table 2)), the LE is listed as 0.35. In addition, in data set [4] (LLE = −Log(IC50 [M]) – cLogP (MoKa) (Table 2)), the LLE came to 4.8. The “fold increase in HSET inhibition” value in data set [4] (propyl ester versus ethyl ester 13) is on record as “fivefold”.
`CCCOC(=O)c1sc(NC(=O)C[C@H](CCCN(C)C(=O)O[C@@H]2CC/C=C/CCC2)NC(=O)c2cccc(-c3noc(C)n3)c2)nc1C` [Compound 38, Propyl 2-((S)-6-(((((S,E)-Cyclooct-4-en-1-yl)oxy)carbonyl)(methyl)amino)-3-(3-(5-methyl-1,2,4-oxadiazol-3-yl)benzamido)hexanamido)-4-methylthiazole-5-carboxylate]: the KSol data in data set [1] amounted to 1.8 µM. For the same compound, the “fold decrease in HSET activity” value in data set [4] (compared to its parent compound (35)) stood at 11 fold. Besides, the IC50 in data set [4] (setting [7]) amounted to 0.217 µM.
`CCCOC(=O)c1sc(NC(=O)C[C@H](CCCN(C)C)NC(=O)c2cccc(-c3noc(C)n3)c2)nc1C` [Compound 36, Propyl (S)-2-(6-(Dimethylamino)-3-(3-(5-methyl-1,2,4-oxadiazol-3-yl)benzamido)hexanamido)-4-methylthiazole-5-carboxylate] showed a KSol data in data set [1] of more than 90 µM. The “% multipolarity above baseline @ 15 μM (4NCA cells)” value in data set [2] (setting [5]) and in data set [2] (setting [6]) was 15% each time. Moreover, the half-inhibitory concentration (IC50) was 0.09 µM in data set [3], 0.011 µM in data set [4] (setting [7]) and 0.011 µM in data set [4] (mean (±SD) n ≥ 3 (Table 4)).
